Several values for one entry are separate records, joined by “and”; a condition that tells them apart may be missing. Identical values can stand only once.
Assays:
EGFR (human) [1] = biological target: EGFR (human) (UniProt P00533)
EGFR (Balb/c mice) = EGFR (Balb/c mice) (UniProt P00533)
EGFR (murine) [2] = biological target: EGFR (murine) (UniProt P00533); settings: nih3t3
MAPK14 (human) [3] = biological target: MAPK14 (human) (UniProt Q16539); assay: Inhibition of TNF-alpha Production in PBMC Cells
ROCK2 = ROCK2 (UniProt O75116); assay: ROCK2 Kinase Inhibition; settings: concentration not given here
ROCK2, sequence (O75116 whole entry, looked up): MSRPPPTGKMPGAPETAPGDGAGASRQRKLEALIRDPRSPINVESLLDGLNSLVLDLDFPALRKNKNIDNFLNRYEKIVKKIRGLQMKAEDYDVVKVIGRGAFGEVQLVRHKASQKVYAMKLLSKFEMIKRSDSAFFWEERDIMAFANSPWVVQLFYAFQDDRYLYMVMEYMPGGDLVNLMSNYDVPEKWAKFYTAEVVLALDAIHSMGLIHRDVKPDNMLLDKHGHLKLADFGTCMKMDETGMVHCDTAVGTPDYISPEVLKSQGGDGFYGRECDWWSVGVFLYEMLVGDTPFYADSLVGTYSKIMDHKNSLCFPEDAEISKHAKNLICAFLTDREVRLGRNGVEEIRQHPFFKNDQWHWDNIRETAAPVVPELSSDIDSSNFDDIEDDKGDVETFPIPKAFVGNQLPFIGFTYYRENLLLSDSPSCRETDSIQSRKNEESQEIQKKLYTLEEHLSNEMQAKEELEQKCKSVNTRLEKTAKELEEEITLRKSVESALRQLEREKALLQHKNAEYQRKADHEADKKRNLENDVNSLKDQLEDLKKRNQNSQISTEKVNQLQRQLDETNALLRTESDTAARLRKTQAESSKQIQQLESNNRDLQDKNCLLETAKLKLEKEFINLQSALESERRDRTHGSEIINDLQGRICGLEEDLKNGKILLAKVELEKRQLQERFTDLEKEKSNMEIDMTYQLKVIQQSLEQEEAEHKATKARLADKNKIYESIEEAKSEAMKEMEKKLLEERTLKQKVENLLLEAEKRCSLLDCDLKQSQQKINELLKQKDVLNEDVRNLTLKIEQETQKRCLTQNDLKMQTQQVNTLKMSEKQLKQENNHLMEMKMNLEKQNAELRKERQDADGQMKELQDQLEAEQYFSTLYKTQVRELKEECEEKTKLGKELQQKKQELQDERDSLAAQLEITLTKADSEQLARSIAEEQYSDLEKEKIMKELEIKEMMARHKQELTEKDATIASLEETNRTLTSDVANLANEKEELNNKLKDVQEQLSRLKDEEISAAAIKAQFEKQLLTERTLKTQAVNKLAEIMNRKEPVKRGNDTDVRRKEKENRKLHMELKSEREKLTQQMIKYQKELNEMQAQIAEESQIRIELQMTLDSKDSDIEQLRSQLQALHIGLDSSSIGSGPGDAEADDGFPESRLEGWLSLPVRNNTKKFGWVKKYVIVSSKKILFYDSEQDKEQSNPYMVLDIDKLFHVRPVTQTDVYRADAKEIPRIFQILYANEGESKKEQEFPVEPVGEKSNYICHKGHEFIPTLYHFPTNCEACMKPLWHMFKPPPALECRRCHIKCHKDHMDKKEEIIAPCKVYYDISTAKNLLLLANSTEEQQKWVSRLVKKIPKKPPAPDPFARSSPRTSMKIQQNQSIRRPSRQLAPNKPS

CDK2 = CDK2 (UniProt P24941); assay: Enzyme Assay; settings: concentration not given here
MAPK14 [4] = biological target: MAPK14 (UniProt Q16539); assay: p38-alpha Kinase Inhibition; settings: concentration not given here
ROCK2 (human) [5] = biological target: ROCK2 (human) (UniProt O75116); assay: Assessment of ROCK2 Kinase Activity (ProQinase Setup)
ROCK2 (human), sequence (O75116 whole entry, looked up): as above

EGFR (mouse) = EGFR (mouse) (UniProt P00533); settings: mk
EGFR (human) [6] = biological target: EGFR (human) (UniProt P00533); settings: A431
EGFR (murine) [7] = biological target: EGFR (murine) (UniProt P00533); settings: nih3t3; remark: listed apart in the source
EGFR [8] = biological target: EGFR (UniProt P00533)
EGFR, sequence (P00533 whole entry, looked up): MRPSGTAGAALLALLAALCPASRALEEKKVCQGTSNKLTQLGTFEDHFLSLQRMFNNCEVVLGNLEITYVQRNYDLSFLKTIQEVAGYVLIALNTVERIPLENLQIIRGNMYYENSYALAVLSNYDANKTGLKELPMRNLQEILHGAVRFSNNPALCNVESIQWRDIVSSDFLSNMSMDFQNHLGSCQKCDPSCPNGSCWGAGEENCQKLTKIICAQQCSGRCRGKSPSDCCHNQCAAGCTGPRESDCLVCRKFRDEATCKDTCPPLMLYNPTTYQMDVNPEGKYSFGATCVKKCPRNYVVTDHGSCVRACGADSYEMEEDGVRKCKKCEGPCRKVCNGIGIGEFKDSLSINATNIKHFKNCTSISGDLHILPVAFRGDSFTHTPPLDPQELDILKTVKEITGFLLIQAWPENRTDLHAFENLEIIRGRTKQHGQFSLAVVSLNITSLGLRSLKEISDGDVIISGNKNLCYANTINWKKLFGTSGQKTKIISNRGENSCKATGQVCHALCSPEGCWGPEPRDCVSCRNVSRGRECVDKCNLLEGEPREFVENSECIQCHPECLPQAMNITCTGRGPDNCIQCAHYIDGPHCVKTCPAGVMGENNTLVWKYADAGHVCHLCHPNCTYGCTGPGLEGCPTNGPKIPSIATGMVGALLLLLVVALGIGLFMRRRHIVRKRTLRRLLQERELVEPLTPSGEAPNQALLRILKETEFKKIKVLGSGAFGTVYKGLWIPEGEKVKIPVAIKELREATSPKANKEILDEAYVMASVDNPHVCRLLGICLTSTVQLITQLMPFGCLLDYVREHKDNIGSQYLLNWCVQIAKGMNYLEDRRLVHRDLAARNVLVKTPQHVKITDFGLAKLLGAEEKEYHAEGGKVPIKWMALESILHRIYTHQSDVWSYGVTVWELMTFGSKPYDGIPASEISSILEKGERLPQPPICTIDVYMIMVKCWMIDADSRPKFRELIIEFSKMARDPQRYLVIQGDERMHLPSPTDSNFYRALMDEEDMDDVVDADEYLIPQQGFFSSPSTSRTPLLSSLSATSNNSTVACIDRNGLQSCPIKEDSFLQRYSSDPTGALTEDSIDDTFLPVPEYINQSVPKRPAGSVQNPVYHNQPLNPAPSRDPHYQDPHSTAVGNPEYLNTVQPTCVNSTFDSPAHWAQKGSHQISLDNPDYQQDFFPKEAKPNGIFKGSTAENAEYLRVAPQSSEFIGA

MAPK14 (human) [9] = biological target: MAPK14 (human) (UniProt Q16539); assay: Inhibition of TNF-alpha Production in LPS Stimulated Whole Blood; settings: blood cells
MAPK14 (human) [10] = biological target: MAPK14 (human) (UniProt Q16539); assay: Inhibition of IL-beta Production in LPS Stimulated Whole Blood; settings: blood cells
EGFR (human) [11] = biological target: EGFR (human) (UniProt P00533); remark: listed apart in the source
ROCK2 (human) [12] = biological target: ROCK2 (human) (UniProt O75116); assay: Assessment of ROCK2 Kinase Activity (Fluorescence Polarization Assay)
EGFR [13] = biological target: EGFR (UniProt P00533); remark: listed apart in the source
EGFR [14] = biological target: EGFR (UniProt P00533); remark: listed apart in the source
EGFR (human) [15] = biological target: EGFR (human) (UniProt P00533); settings: a431
EGFR [16] = biological target: EGFR (UniProt P00533); remark: listed apart in the source
MAPK14 [17] = biological target: MAPK14 (UniProt Q16539); assay: p38 Kinase Inhibition
PIK3CA (human) = PIK3CA (human) (UniProt P42336); assay: Assessment of PIK3CA Kinase Activity in NZB5 Cells
EGFR [18] = biological target: EGFR (UniProt P00533); settings: a431
EGFR [19] = biological target: EGFR (UniProt P00533); settings: swiss 3t3 fibroblast
MAPK14 [20] = biological target: MAPK14 (UniProt Q16539); assay: p38 MAP kinase Inhibition Assay
MAPK14 [21] = biological target: MAPK14 (UniProt Q16539); assay: p38-alpha Inhibition
EGFR (human) [22] = biological target: EGFR (human) (UniProt P00533); settings: a431; remark: listed apart in the source

EGFR (murine), sequence (P00533 whole entry, looked up): as above
EGFR (human), sequence (P00533 whole entry, looked up): as above

COC(=O)CCc1c(SSc2c(CCC(=O)OC)c3ccccc3n2C)n(C)c2ccccc12
IC50 (EGFR (human) [1]): > 100 µM

Cc1ccc2ncnc(Nc3cccc(C(F)(F)F)c3)c2c1
LD50 (EGFR (Balb/c mice)): > 400 mg/kg | IC50 (EGFR (murine) [2]): 0.9 µM

CCC(=O)Nc1cc(Nc2ncnc3cc(OC)c(OC)cc23)ccc1F
IC50 (MAPK14 (human) [3]): 3.2 µM

Cn1cc(C2=C(c3cn(CCCN)c4ccccc34)C(=O)NC2=O)c2ccccc21
activity (ROCK2): 33% | activity (CDK2): 34% | activity (MAPK14 [4]): 38%

NCc1ccc(C(=O)Nc2ccncc2F)cc1-c1cccc(C(=O)OC[C@H]2CCCO2)c1
IC50 (ROCK2 (human) [5]): 0.1 to 1 µM

COc1cc(O)c2c(=O)c(-c3cccc(Cl)c3)coc2c1
IC50 (EGFR (mouse)): 45.2 µM

C[C@H](Nc1[nH]cnc2c3ccccc3nc1-2)c1ccccc1
IC50 (EGFR (human) [6]): > 100 µM

Cc1nocc1C(=O)Nc1ccc(C(F)(F)F)cc1
IC50 (EGFR (murine) [7]): > 100 µM

Cc1oncc1C(=O)Nc1ccc(C(F)(F)F)cc1
IC50 (EGFR (murine) [7]): > 100 µM | IC50 (EGFR [8]): 30 µM

CSc1nc(-c2ccc(F)cc2)c(-c2ccnc(NC(C)=O)c2)n1CCOCCO
IC50 (MAPK14 (human) [9]): > 100 µM | IC50 (MAPK14 (human) [10]): > 100 µM

O=C1C2=C(C(=O)c3c(O)ccc(O)c31)[C@@H](O)[C@@H](O)[C@@H](O)C2
IC50 (EGFR (human) [11]): 13 µM

CCCOC(=O)c1cc(-c2cc(C(=O)Nc3ccncc3)ccc2C(C)N)c[nH]1 (centres undefined)
IC50 (ROCK2 (human) [12]): < 0.1 µM

O=C1Nc2ccccc2C1=Cc1ccc(O)cc1O
IC50 (EGFR [13]): < 3.9 µM

COc1ccc(N2Cc3cnc(Nc4ccccc4)nc3N(c3ccccc3)C2=O)cc1
IC50 (EGFR [14]): 0.36 µM and 0.35 µM

N#CC(C#N)=Cc1cc(O)cc(O)c1
Ki (EGFR (human) [15]): 10 µM

Cc1cccc(N(C)c2ncnc3[nH]ncc23)c1
IC50 (EGFR [8]): > 50 µM

Nc1ccc(-c2cc3c(N4CCCc5ccccc54)ncnc3[nH]2)cc1
IC50 (EGFR [16]): 0.026 µM

CC(C)(C)NC(=O)c1cccc(Oc2ccc(Nc3ncnc4ccn(CCO)c34)cc2Cl)c1
IC50 (EGFR (human) [11]): 0.0023 µM

C[C@]1(C(=O)N2CCOCC2)CO[C@H](c2nc(-c3ccc(F)cc3)c(-c3ccnc(NCc4ccccn4)n3)[nH]2)OC1
IC50 (MAPK14 [17]): 0.011 µM

Cn1c(SSc2c(C(=O)Nc3cccnn3)c3ccccc3n2C)c(C(=O)Nc2cccnc2)c2ccccc21
IC50 (EGFR (human) [1]): > 100 µM

Cc1ccc([N+](=O)[O-])cc1S(=O)(=O)N(C)N=Cc1cnn2cc(Br)ccc12
IC50 (PIK3CA (human)): > 20 µM

COc1ccc2[nH]c3c(-c4ccccc4)nc4c(c3c2c1)C(=O)NC4=O
IC50 (EGFR [18]): > 30 µM | IC50 (EGFR [19]): 8.9 µM

CSc1nc(-c2ccc(F)cc2)c(-c2ccnc(NC(C)=O)c2)n1CCN1CCOCC1
IC50 (MAPK14 (human) [9]): > 10 µM | IC50 (MAPK14 (human) [10]): > 10 µM

COc1cc2[nH]c3c(-c4ccccc4C)nc4c(c3c2cc1OC)C(=O)NC4=O
IC50 (EGFR [18]): > 30 µM | IC50 (EGFR [19]): > 30 µM

CSc1nc(-c2ccc(F)cc2)c(-c2ccnc(NC(C)=O)c2)n1CCN1CCCCC1
IC50 (MAPK14 (human) [9]): > 10 µM | IC50 (MAPK14 (human) [10]): > 10 µM

Cc1[nH]c2ncnc(N3CCc4ccccc43)c2c1C
IC50 (EGFR [16]): 1.56 µM

Cc1ccc(S(=O)(=O)n2cc(/C=C/c3cccnc3)c3ccccc32)cc1
IC50 (MAPK14 [20]): 1000 µM

COc1cc2ncnc(Nc3cccc(C(F)(F)F)c3)c2cc1OC
toxicity (EGFR (Balb/c mice); dose or concentration not given here): 40% | IC50 (EGFR (murine) [2]): < 0.006 µM

CCOCn1c(-c2ccncc2)c(-c2ccc(F)cc2)c2ncccc21
IC50 (MAPK14 [21]): 0.021 µM

Cn1c(SSc2c(C(=O)Nc3ccccc3)c3cc(C(F)(F)F)ccc3n2C)c(C(=O)Nc2ccccc2)c2cc(C(F)(F)F)ccc21
IC50 (EGFR (human) [1]): > 100 µM

COc1ccc(OC)c(Cc2cc3c(NC4C=C(Br)C=CC4)nc(N)nc3[nH]2)c1 (centres undefined)
IC50 (EGFR (human) [22]): > 50 µM

C[C@@H](Nc1nc[nH]c2nc(-c3ccccc3)cc1-2)c1ccccc1
IC50 (EGFR (human) [6]): 0.01 to 0.05 µM

O=C1C(CO)=C(CO)C(=O)c2c(O)ccc(O)c21
IC50 (EGFR (human) [11]): 15 µM

ON1=CC=Cc2[nH]c(c3ccncc3)c(c4ccc(F)cc4)c12
IC50 (MAPK14 [21]): 6.7 µM

COc1cc2ncnc(Nc3ccc(C)c(NC(=O)c4ccccc4)c3)c2cc1OC
IC50 (MAPK14 (human) [3]): 3.6 µM

O=C(O)C1=Cc2c(Cl)ncnc2NCC1
IC50 (EGFR (human) [11]): 0.036 µM

NCc1ccc(C(=O)Nc2ccncc2F)cc1-c1cccc(CC(=O)OC2CC3CCC2C3)c1 (centres undefined)
IC50 (ROCK2 (human) [5]): 0.1 to 1 µM

COCCCOC(=O)c1cccc(-c2cc(C(=O)Nc3ccncc3)ccc2CN)c1
IC50 (ROCK2 (human) [5]): 0.1 to 1 µM

C[C@@H](Nc1ncnc2ccccc12)c1ccccc1
IC50 (EGFR (human) [6]): 0.086 µM
